The source of these data is patent publication US20230194530A1, “CIRCULATING CARDIOVASCULAR BIOMARKERS AND VASCULAR STABILIZING THERAPY” (priority 2021, published 2023).

In this assay the test system is VE-cadherin and Claudin-5 in pHUVECs. The experiment in a line: Immunofluorescence of VE-cadherin and Claudin-5 junctional staining in pHUVECs treated with COVID-19 patient plasma. The following applies: co-treatment with moderate or severe COVID-19 plasma, six hours. The class given is cell-based, human.

Consider Nangibotide, for which the “disruption of the EC barrier, as examined through junctional protein expression (VE-cadherin, Claudin-5)” value is reported as “could maintain junctional protein expression”.
